Patent US20230042936A1, “PYRIDO[2,3-d]PYRIMIDIN-7(8H)-ONES AS CDK INHIBITORS” (PROSENESTAR LLC, priority 2020, published 2023)
In brackets after ≈: the same amount, converted by molar mass. Where two headings read alike, the source gives them in different places.

Columns and labels:
[1] = target: CDK19/CycC (Homo sapiens, UniProt Q9BWU1); assay: Kinase profiling; format: biochemical; settings: 10 semi-logarithmic dilutions from 50 μM, singlicate
[2] = tested on: MCF10 non-transformed mammary epithelial cell line; assay: Proliferation assay: determination of GI50; format: cell-based, human; settings: Homo sapiens, MCF10; Table 3; 48 h; n = 2 independent experiments
Procedure: (§1) The following human tumor cell lines, all Retinoblastoma (Rb)-proficient, were used in this study: MDA-MB231 (breast cancer), MDA-MB453 (breast cancer), U87MG (glioblastoma) and H460 (lung cancer). MDA-MB468 (breast cancer) and SW1783 (glioblastoma) Rb-deficient cells were also included in the study, as well as the MCF10A non-transformed mammary epithelial cell line. Tumor cell lines were maintained in DMEM or RPMI-1640 medium, depending on the cell line, supplemented with 10% FBS. MCF10A cells were grown in complete mammary epithelial growth medium (MEGM, Lonza). Cell lines were authenticated by short tandem repeat (STR) loci profiling with the GenePrint® 10 System (Promega).
(§2) All human cancer cell lines (Table 2) were obtained from the American Type Culture Collection, and were maintained in DMEM (Hyclone) or RPMI-1640 medium (Sigma) supplemented with 10% fetal bovine serum (Sigma). Non-transformed MCF10 cell line was maintained in MEGM Mammary Epithelial Cell Growth Medium (Lonza). Immortalized mouse embryonic fibroblasts (MEFs) were maintained in DMEM with 10% fetal bovine serum.
(§3) 48 h later cells were fixed with PFA 4% for 15 minutes, stained with 10 μg/ml Hoechst 33342 (Molecular Probes, Thermo Fisher) for 30 minutes and washed twice with PBS. Cells were imaged in a high content screening system (Opera Phoenix™, Perkin Elmer) using a 20× dry objective (30 fields/well). Cell counts were determined by the Opera software (Perkin Elmer) and data were further processed with SPSS software. GI50 was calculated by estimating the absolute IC50 using dose-response inhibition tool in Prism6 (Graphpad Software Inc.).

[3] = tested on: H460 lung carcinoma cell line; assay: Proliferation assay: determination of GI50; format: cell-based, human; settings: Homo sapiens, NCI-H460; Table 3; 48 h; n = 2 independent experiments
Procedure: as §1, §2, §3

[4] = tested on: U87MG glioblastoma cell line; assay: Proliferation assay: determination of GI50; format: cell-based, human; settings: Homo sapiens, U-87 MG
Procedure: as §1, §2, §3

[5] = tested on: MDA-MB-231 breast carcinoma cell line; assay: Proliferation assay: determination of GI50; format: cell-based, human; settings: Homo sapiens, MDA-MB-231
Procedure: as §1, §2, §3

[6] = tested on: MDA-MB-468 breast carcinoma cell line (pRB mutant); assay: Proliferation assay: determination of GI50; format: cell-based; settings: Homo sapiens, Table 4, n = 2, read-out: Growth inhibition GI50, Breast cancer pRB Mutant MDA-MB-468
Procedure: as §1, §2, §3

[7] = tested on: SW1783 glioblastoma cell line (pRB mutant); assay: Proliferation assay: determination of GI50; format: cell-based; settings: Homo sapiens, Table 4, n = 4, read-out: Growth inhibition GI50, Glioblastoma pRB Mutant SW1783
Procedure: as §1, §2, §3

[8] = Metabolic stability in hepatocytes; format: in vitro ADME; settings: mouse, 60-90 min test
[9] = Thermodynamic solubility (pH 7.4); format: physicochemical; settings: pH 7.4, aqueous buffer, thermodynamic from solid
[10] = Permeability Caco-2 cells; format: in vitro ADME; settings: human, Caco-2
[11] = tested on: Caco-2 cells; assay: Permeability Caco-2 cells; format: in vitro ADME
[12] = tested on: Cdk2/4/6_KO MEFs; assay: Cell growth in Cdk-deficient MEFs; format: cell-based, mouse; settings: relative cell count day 6 versus day 3; FIG. 4
Procedure: (§4) Cdk-deficient MEFs were plated in 10-cm dish in triplicate (100,000/well) and treated with the selected compounds at the indicated concentration, based on GI50 previously determined in the MDA-MB-231 cell line. Cells were counted in an optical microscope 3 and 6 days after treatment to estimate the relative cell growth in each condition.
(§5) To further investigate the relative functional dependence of the subject compounds on CDK2 versus CDK4 or CDK6, the specific effects of PS004, PS006 and PS009 were tested on CDK-deficient mouse embryonic fibroblasts (MEFs) obtained from Cdk2 knock out, Cdk4; Cdk6-double knock out and Cdk2; Cdk4; Cdk6-triple knock out mouse models.

[13] = tested on: Cdk4/6_KO MEFs; assay: Cell growth in Cdk-deficient MEFs; format: cell-based, mouse; settings: relative cell count day 6 versus day 3; FIG. 4
Procedure: as §4, §5

[14] = Kinetic solubility (pH 7.4); format: physicochemical; settings: pH 7.4, aqueous buffer, kinetic from dmso stock
[15] = target: T1, DYRK2 (Homo sapiens, UniProt Q92630); assay: Kinase profiling; format: biochemical; settings: 10 semi-logarithmic dilutions from 50 μM, singlicate; read-out: IC50 DYRK2
T1 sequence (Q92630 1-601): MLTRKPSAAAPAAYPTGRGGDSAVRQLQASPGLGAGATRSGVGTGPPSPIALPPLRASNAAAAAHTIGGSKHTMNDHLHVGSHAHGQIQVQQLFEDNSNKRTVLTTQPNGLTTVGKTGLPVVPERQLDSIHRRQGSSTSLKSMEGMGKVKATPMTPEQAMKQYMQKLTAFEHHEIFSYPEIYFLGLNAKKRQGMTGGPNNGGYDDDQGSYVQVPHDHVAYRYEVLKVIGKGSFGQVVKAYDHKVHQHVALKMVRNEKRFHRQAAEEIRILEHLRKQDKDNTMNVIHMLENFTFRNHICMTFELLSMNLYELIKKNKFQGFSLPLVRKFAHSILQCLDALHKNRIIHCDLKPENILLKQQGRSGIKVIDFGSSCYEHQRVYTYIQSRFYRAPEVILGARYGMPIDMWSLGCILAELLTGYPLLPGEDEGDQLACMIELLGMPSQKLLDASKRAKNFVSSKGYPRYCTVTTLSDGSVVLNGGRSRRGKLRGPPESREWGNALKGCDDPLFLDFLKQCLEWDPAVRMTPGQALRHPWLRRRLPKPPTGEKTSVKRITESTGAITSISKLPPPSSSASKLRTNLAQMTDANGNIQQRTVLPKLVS

[16] = Metabolic stability in hepatocytes; format: in vitro ADME; settings: human, 60-90 min test
[17] = Metabolic stability in microsomes; format: in vitro ADME; settings: human, 60-90 min test
[18] = Metabolic stability in microsomes; format: in vitro ADME; settings: mouse, 60-90 min test
[19] = not told

Chain of CDK19/CycC (Q9BWU1 whole entry): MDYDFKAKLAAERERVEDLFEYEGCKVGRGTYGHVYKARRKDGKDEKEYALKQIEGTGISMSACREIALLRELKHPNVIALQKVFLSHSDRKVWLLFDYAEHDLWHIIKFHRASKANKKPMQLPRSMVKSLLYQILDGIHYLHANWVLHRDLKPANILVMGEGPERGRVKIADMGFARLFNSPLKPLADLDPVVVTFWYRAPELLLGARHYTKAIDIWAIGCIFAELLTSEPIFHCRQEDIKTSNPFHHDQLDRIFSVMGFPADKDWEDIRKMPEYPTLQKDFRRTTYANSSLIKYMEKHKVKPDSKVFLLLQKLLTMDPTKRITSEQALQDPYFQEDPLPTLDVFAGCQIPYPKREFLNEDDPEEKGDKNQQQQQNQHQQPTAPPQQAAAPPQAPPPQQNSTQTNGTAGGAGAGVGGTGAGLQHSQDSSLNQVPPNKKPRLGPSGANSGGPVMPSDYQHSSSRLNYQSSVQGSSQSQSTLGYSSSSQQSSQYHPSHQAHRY
Chain of CDK19/CycC (P24863 whole entry partner): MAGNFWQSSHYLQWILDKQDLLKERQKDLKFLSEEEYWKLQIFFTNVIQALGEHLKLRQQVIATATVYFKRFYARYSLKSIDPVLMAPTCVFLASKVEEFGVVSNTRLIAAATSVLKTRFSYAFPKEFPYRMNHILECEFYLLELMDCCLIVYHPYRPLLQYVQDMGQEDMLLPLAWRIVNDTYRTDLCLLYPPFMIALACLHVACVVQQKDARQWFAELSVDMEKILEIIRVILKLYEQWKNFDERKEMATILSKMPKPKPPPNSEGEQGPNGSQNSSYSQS

## CC(=O)c1c(C)c2cnc(Nc3ccc(N4CCNCC4)cn3)nc2n(C2CCCC2)c1=O [Palbociclib, reference compound]
[1]
  IC50: 11.8 µM
[2]
  GI50: 0.47 µM
[3]
  GI50: 1.32 µM
[4]; Table 3, 48 h, n = 3 independent experiments, read-out: GI50 U87MG
  GI50: 0.43 µM
[4]; Table 4, n = 4, read-out: Growth inhibition GI50, Glioblastoma pRB Wild-Type U87MG
  GI50: 5.7 µM
[5]; Table 3, 48 h, n = 3 independent experiments, read-out: GI50 MDA-MB231
  GI50: 0.74 µM
[5]; Table 4, n = 4, read-out: Growth inhibition GI50, Breast cancer pRB Wild-Type MDA-MB-231
  GI50: 1.7 µM
[6]
  GI50: 9.5 µM
[7]
  GI50: 19.9 µM
[8]; read-out: Metabolic stability, Mouse heptocytes: Clearance
  hepatocyte CLint: 14.4 µL/min/1e6 cells
[8]; read-out: Metabolic stability, Mouse heptocytes: t1/2
  half-life: 1.61 h
[9]
  solubility thermodynamic: 2.32 µM (≈ 1.04 µg/mL)
[10]
  Papp: 0.4 ×10⁻⁶ cm/s
[11]
  Permeability Caco-2 cells: Permeability, grade in words: (low)
[12]
  cell proliferation of Cdk2; Cdk4; Cdk6-triple knock out MEFs: did not show activity
[13]
  cell proliferation of Cdk4; Cdk6-double knock out MEFs: did not show activity
[14]
  solubility kinetic: 19.9 µM (≈ 8.92 µg/mL)
[15]
  IC50: 6.91 µM
[16]; read-out: Metabolic stability, Human hepatocytes: Clearance
  hepatocyte CLint: < 6.4 µL/min/1e6 cells
[16]; read-out: Metabolic stability, Human hepatocytes: t1/2
  half-life: > 3.61 h
[17]; read-out: Metabolic stability, Human microsomes: Clearance
  microsomal CLint: 23.6 µL/min/mg
[17]; read-out: Metabolic stability, Human microsomes: t1/2
  half-life: 0.98 h
[18]; read-out: Metabolic stability, Mouse microsomes: Clearance
  microsomal CLint: 18.3 µL/min/mg
[18]; read-out: Metabolic stability, Mouse microsomes: t1/2
  half-life: 1.26 h
[19]
  Summary: permeability: Low
